Each cell line was assayed with N[C@@H]1CCCN(c2c(/C=C3\SC(=O)NC3=O)cccc2-c2ccccc2)C1 [AZD1208] + Nc1nc2[nH]cc(CCc3ccc(C(=O)N[C@@H](CCC(=O)O)C(=O)O)cc3)c2c(=O)[nH]1 [Pemetrexed] (partner 0.2 µM) (assay: relative viability (nuclei count vs DMSO), 5 days (fraction); higher = more cells survive). Details: first compound 0.08 µM.
Procedure, shortened: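 Lung cancer cell lines were pin-tool dosed in 1536-well plates on the day after seeding, with either a lone drug or a fixed anchor-drug dose plus five library-drug doses (not always all listed) in √10 steps. Nuclei were counted on 4× images after 5 days. Relative viability is the ratio of treated-well to vehicle-well nuclei counts, with each value a median of duplicate plates.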
In the case of LCLC-97TM1, the relative viability is reported as 0.188.
NCI-H2023 was tested, and the relative viability was 0.263.
Cell Line A-427 has a relative viability of 0.971.
Cell Line NCI-H460 has a relative viability of 0.065.
NCI-H1734 was tested, and the relative viability was 0.404.
NCI-H520 was tested, and the relative viability was 0.685.
For NCI-H2405, the relative viability was 1.01.
SW 1573 showed a relative viability of 0.782.
In the case of NCI-H1395, the relative viability is reported as 0.937.
With 201T the relative viability was 0.346.
In the case of NCI-H1915, the relative viability is reported as 0.452.
HCC-827 gave a relative viability of 0.278.
Cell Line LXF-289 has a relative viability of 0.887.
NCI-H2347 was tested, and the relative viability was 0.447.
CAL-12T was tested, and the relative viability was 1.21.
NCI-H1651 showed a relative viability of 0.626.
Cell Line EPLC-272H has a relative viability of 0.353.
Work on NCI-H23 yielded a relative viability of 0.604.
NCI-H1355 was tested, and the relative viability was 1.1.
In the case of NCI-H322M, the relative viability is reported as 0.565.
NCI-H1437 showed a relative viability of 0.302.
Cell Line NCI-H1755 has a relative viability of 0.451.
NCI-H2085 gave a relative viability of 0.912.
HCC-15 was tested, and the relative viability was 0.215.
Work on NCI-H1793 yielded a relative viability of 0.828.
Cell Line PC-3 [JPC-3] has a relative viability of 1.22.

Same assay, conditions: first compound 0.253 µM
NCI-H3122 showed a relative viability of 0.187.
HOP-62 showed a relative viability of 0.345.
Work on LU99A yielded a relative viability of 0.237.
Cell Line BEN has a relative viability of 0.525.
HARA gave a relative viability of 0.206.
Cell Line HCC-78 has a relative viability of 0.908.
With NCI-H441 the relative viability was 0.263.
For LCLC-97TM1, the relative viability was 0.176.
In the case of NCI-H2023, the relative viability is reported as 0.207.
With A-427 the relative viability was 1.05.
NCI-H460 gave a relative viability of 0.0614.
In the case of NCI-H1734, the relative viability is reported as 0.409.
Work on NCI-H520 yielded a relative viability of 0.703.
Cell Line NCI-H2405 has a relative viability of 1.
Cell Line SW 1573 has a relative viability of 0.748.
In the case of NCI-H1395, the relative viability is reported as 0.859.
With 201T the relative viability was 0.339.
Cell Line NCI-H1915 has a relative viability of 0.483.
Cell Line HCC-827 has a relative viability of 0.26.
Work on LXF-289 yielded a relative viability of 1.01.
NCI-H2347 showed a relative viability of 0.423.
For CAL-12T, the relative viability was 1.22.
NCI-H1651 showed a relative viability of 0.57.
For EPLC-272H, the relative viability was 0.422.
With NCI-H23 the relative viability was 0.698.
Cell Line NCI-H1355 has a relative viability of 0.944.
Cell Line NCI-H322M has a relative viability of 0.654.
For NCI-H1437, the relative viability was 0.307.
For NCI-H1755, the relative viability was 0.457.
Work on NCI-H2085 yielded a relative viability of 0.971.
In the case of HCC-15, the relative viability is reported as 0.214.
For NCI-H1793, the relative viability was 0.954.
In the case of PC-3 [JPC-3], the relative viability is reported as 1.04.

Same assay, conditions: first compound 0.8 µM
NCI-H3122 gave a relative viability of 0.195.
HOP-62 showed a relative viability of 0.28.
LU99A gave a relative viability of 0.233.
In the case of BEN, the relative viability is reported as 0.568.
HARA gave a relative viability of 0.292.
In the case of HCC-78, the relative viability is reported as 0.897.
Cell Line NCI-H441 has a relative viability of 0.237.
Work on LCLC-97TM1 yielded a relative viability of 0.125.
Cell Line NCI-H2023 has a relative viability of 0.241.
In the case of A-427, the relative viability is reported as 0.847.
NCI-H460 was tested, and the relative viability was 0.0662.
With NCI-H1734 the relative viability was 0.442.
In the case of NCI-H520, the relative viability is reported as 0.555.
With NCI-H2405 the relative viability was 1.02.
SW 1573 showed a relative viability of 0.717.
With NCI-H1395 the relative viability was 0.699.
Work on 201T yielded a relative viability of 0.305.
NCI-H1915 gave a relative viability of 0.528.
HCC-827 showed a relative viability of 0.308.
LXF-289 was tested, and the relative viability was 0.924.
For NCI-H2347, the relative viability was 0.468.
Cell Line CAL-12T has a relative viability of 1.18.
Work on EPLC-272H yielded a relative viability of 0.376.
With NCI-H23 the relative viability was 0.632.
Work on NCI-H1355 yielded a relative viability of 0.934.
NCI-H1437 was tested, and the relative viability was 0.327.
Cell Line NCI-H1755 has a relative viability of 0.532.
In the case of NCI-H2085, the relative viability is reported as 0.936.
Work on HCC-15 yielded a relative viability of 0.225.
Work on NCI-H1793 yielded a relative viability of 0.716.
Cell Line PC-3 [JPC-3] has a relative viability of 1.09.

Same assay, conditions: first compound 2.53 µM
For NCI-H3122, the relative viability was 0.207.
With HOP-62 the relative viability was 0.289.
Work on LU99A yielded a relative viability of 0.198.
Work on BEN yielded a relative viability of 0.612.
With HARA the relative viability was 0.282.
HCC-78 gave a relative viability of 0.87.
With NCI-H441 the relative viability was 0.263.
Work on LCLC-97TM1 yielded a relative viability of 0.175.
NCI-H2023 showed a relative viability of 0.243.
A-427 was tested, and the relative viability was 1.03.
For NCI-H460, the relative viability was 0.0615.
NCI-H1734 gave a relative viability of 0.427.
Cell Line NCI-H520 has a relative viability of 0.524.
NCI-H2405 showed a relative viability of 1.02.
SW 1573 was tested, and the relative viability was 0.646.
Work on NCI-H1395 yielded a relative viability of 0.787.
201T showed a relative viability of 0.269.
Work on NCI-H1915 yielded a relative viability of 0.462.
HCC-827 showed a relative viability of 0.269.
In the case of LXF-289, the relative viability is reported as 0.634.
NCI-H2347 gave a relative viability of 0.439.
CAL-12T gave a relative viability of 1.23.
With NCI-H1651 the relative viability was 0.569.
With EPLC-272H the relative viability was 0.342.
NCI-H23 gave a relative viability of 0.704.
NCI-H1355 showed a relative viability of 1.04.
NCI-H322M gave a relative viability of 0.622.
Work on NCI-H1437 yielded a relative viability of 0.355.
In the case of NCI-H1755, the relative viability is reported as 0.426.
In the case of NCI-H2085, the relative viability is reported as 0.817.
HCC-15 was tested, and the relative viability was 0.237.
NCI-H1793 gave a relative viability of 0.935.
Cell Line PC-3 [JPC-3] has a relative viability of 1.18.

Same assay, conditions: first compound 8 µM
NCI-H3122 showed a relative viability of 0.187.
Cell Line HOP-62 has a relative viability of 0.269.
Work on LU99A yielded a relative viability of 0.205.
BEN was tested, and the relative viability was 0.558.
Cell Line HARA has a relative viability of 0.227.
For HCC-78, the relative viability was 0.912.
NCI-H441 was tested, and the relative viability was 0.256.
LCLC-97TM1 gave a relative viability of 0.171.
For NCI-H2023, the relative viability was 0.229.
In the case of A-427, the relative viability is reported as 0.911.
NCI-H460 was tested, and the relative viability was 0.055.
Work on NCI-H1734 yielded a relative viability of 0.435.
NCI-H520 was tested, and the relative viability was 0.446.
Cell Line NCI-H2405 has a relative viability of 0.95.
With SW 1573 the relative viability was 0.749.
In the case of NCI-H1395, the relative viability is reported as 0.673.
For 201T, the relative viability was 0.327.
NCI-H1915 gave a relative viability of 0.443.
Work on HCC-827 yielded a relative viability of 0.265.
LXF-289 was tested, and the relative viability was 1.02.
NCI-H2347 was tested, and the relative viability was 0.444.
Cell Line CAL-12T has a relative viability of 1.14.
NCI-H1651 showed a relative viability of 0.555.
EPLC-272H was tested, and the relative viability was 0.406.
NCI-H23 was tested, and the relative viability was 0.703.
NCI-H1355 gave a relative viability of 1.04.
Cell Line NCI-H322M has a relative viability of 0.608.
Cell Line NCI-H1437 has a relative viability of 0.322.
Work on NCI-H1755 yielded a relative viability of 0.413.
NCI-H2085 showed a relative viability of 0.893.
In the case of HCC-15, the relative viability is reported as 0.213.
In the case of NCI-H1793, the relative viability is reported as 0.718.
PC-3 [JPC-3] showed a relative viability of 1.2.
